Assay results: patent US10912771B1, “Methods for the administration of certain VMAT2 inhibitors” (Neurocrine Biosciences, Inc., priority 2017, dated 2021)
Entries after “also recorded” stand apart in the source; their conditions may differ. Like-named read-outs stand apart in the source and are kept apart here.

How the values were obtained:
[1] = Phase 1 drug-interaction study: safety, treatment-emergent adverse events; assay type: in vivo, human; details: Safety Analysis Set, healthy subjects, by treatment period
Description: (§1) Subjects received a single dose of 80 mg valbenazine tosylate on Days 1 and 11 between 0800 and 1000 hours. In addition, subjects received 600 mg rifampin (300 mg×2 capsules) once daily on Days 5 (after collection of the 96-hour PK sample) through 14 between 0830 and 1030 hours. Subjects were required to fast overnight before receiving the study drugs (valbenazine tosylate and rifampin). Subjects were discharged from the study center on Day 15 (final study day or upon early termination) after all safety evaluations and study assessments had been completed.
(§2) An analysis of variance (ANOVA) model was used to compare AUC0-∞ and Cmax for NBI-98854 administered with rifampin (“test”) versus AUC0-∞ and Cmax for NBI-98854 alone (“reference”). The PK parameters for metabolites of NBI-98854 and rifampin were also evaluated. Safety data were summarized using descriptive statistics.

Serotonin 5-HT1A = biological target: T1, Serotonin 5-HT1A (Homo sapiens, UniProt P08908); assay: Cerep screen, Serotonin 5-HT1A; details: 1 or 10 μM final concentration; n=2
T1 sequence (P08908 1-422): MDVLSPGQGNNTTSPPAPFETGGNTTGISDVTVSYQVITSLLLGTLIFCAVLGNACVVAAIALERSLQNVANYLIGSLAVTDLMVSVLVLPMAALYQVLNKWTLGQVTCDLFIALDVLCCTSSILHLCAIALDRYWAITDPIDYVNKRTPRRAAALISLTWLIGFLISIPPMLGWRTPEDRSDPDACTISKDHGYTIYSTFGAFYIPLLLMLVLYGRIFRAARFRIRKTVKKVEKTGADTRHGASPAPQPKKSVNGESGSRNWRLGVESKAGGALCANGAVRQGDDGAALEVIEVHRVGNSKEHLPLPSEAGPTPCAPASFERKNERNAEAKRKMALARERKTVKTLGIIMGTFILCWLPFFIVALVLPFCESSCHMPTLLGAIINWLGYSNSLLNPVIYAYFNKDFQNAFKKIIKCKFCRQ

Serotonin 5-HT7 = Serotonin 5-HT7 (Homo sapiens, UniProt P34969); assay: Cerep screen, Serotonin 5-HT7; details: 1 or 10 μM final concentration; n=2
[2] = Phase 1 open-label one-sequence crossover drug-interaction study: plasma pharmacokinetics of NBI-98854 and metabolites with and without rifampin; assay type: in vivo, human; details: for half-life: read-out: Mean t1/2 (converted); for AUC(0-inf) / Cmax / MRT / AUC(0-t) / Tlag / t1/2: Mean (SD); for AUC(0-t): plasma
Description: as §1
Safety was assessed throughout the study.
NBI-98854 40 mg capsules were administered orally. The dose of NBI-98854 was based on ditosylate salt (dose expressed as free base). Subjects received a single dose of NBI-98854 80 mg (as two 40 mg capsules) twice during the study, on Days 1 and 11.
Rifampin 300 mg capsules were administered orally. Subjects received a single dose of rifampin 600 mg (as two 300 mg capsules) on Days 5 (after collection of the 96 hour NBI-98854 PK sample) through 14 between 0830 and 1030 hours.
The following plasma PK parameters were calculated only for NBI-98854: • Apparent systemic clearance after oral administration (CL/F) • Apparent volume of distribution during the terminal phase after oral administration (Vz/F)
The last significant figure was rounded up if the digit to the right of it was >5, and was rounded down if the digit to the right of it was […].
The last significant figure was rounded up if the digit to the right of it was ≥5, and was rounded down if the digit to the right of it was ≤4.
as §2

human VMAT1 transporter = biological target: T2, human VMAT1 transporter (Homo sapiens, UniProt P54219); assay: Uptake in cells expressing VMAT1; assay type: cell-based; details: TBZ, VBZ and metabolites at concentrations up to 10 μM
T2 construct: expressed in transfected cells
T2 sequence (P54219 1-525): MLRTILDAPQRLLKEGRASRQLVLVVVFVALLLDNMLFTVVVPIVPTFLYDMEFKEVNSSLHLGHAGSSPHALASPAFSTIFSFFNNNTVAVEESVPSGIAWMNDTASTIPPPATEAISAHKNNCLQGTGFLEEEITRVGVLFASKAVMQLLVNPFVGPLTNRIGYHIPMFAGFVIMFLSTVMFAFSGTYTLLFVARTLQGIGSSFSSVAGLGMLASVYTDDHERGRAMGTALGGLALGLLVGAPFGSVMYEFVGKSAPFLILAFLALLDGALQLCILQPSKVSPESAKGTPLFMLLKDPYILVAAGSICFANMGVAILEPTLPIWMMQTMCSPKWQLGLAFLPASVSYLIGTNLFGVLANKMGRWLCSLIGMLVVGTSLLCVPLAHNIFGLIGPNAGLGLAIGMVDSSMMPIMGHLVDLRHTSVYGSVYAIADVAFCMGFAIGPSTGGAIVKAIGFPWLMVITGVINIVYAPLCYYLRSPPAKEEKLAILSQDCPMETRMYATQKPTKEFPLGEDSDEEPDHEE

[3] = tested on: more than 80 targets (GPCRs, cell-surface monoamine transporters, ion channels including HERG); assay: Cerep multi-target activity screen; details: receptors, monoamine transporters, and ion channels
VMAT2 = biological target: T3, VMAT2 (Homo sapiens, UniProt Q05940); assay: Inhibition of [3H]-DHTBZ binding to human platelets
T3 construct: from tissue; host or cells: human platelets (homogenates)

[4] = Ptosis, in vivo surrogate measure of pharmacological effect
[5] = both sexes, human, oral, plasma metabolite NBI-136110, NBI-98854 80 mg + rifampin 600 mg, N = 11
[6] = both sexes, human, oral, plasma metabolite NBI-136110, NBI-98854 80 mg alone, N = 11
[7] = plasma metabolite NBI-136110, NBI-98854 80 mg + rifampin 600 mg, N = 11
[8] = plasma metabolite NBI-136110, NBI-98854 80 mg alone, N = 11

T3 sequence (Q05940 whole entry): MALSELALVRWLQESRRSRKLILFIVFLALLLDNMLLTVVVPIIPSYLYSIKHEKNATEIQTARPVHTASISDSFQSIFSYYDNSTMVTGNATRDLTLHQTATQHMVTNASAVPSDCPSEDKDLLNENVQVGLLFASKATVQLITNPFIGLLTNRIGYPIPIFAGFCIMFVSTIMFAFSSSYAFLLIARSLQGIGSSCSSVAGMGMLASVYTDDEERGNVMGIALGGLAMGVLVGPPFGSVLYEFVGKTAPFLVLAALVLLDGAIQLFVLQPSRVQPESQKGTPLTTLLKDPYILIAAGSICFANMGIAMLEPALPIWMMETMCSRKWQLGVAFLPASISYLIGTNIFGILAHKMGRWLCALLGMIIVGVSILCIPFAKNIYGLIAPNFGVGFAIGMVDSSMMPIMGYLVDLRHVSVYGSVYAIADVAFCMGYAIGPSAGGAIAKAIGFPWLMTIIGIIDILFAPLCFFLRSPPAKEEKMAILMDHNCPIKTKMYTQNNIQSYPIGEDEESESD
Chain of Serotonin 5-HT7 (P34969 whole entry): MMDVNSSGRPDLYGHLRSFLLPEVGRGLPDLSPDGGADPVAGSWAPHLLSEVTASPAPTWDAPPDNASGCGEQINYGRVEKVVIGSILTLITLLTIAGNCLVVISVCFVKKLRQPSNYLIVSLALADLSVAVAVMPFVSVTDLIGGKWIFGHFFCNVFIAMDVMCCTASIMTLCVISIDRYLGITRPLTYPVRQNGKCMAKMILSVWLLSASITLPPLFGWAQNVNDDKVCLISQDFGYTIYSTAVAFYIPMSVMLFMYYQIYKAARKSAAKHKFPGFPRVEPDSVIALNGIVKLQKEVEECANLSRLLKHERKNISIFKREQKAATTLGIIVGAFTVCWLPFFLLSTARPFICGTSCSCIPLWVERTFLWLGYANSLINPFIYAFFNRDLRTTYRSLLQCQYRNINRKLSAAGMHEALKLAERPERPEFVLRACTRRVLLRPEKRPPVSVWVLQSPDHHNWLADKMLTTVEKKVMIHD

CO[C@H]1/C=C/O[C@@]2(C)Oc3c(C)c(O)c4c(O)c(c(/C=N/N5CCN(C)CC5)c(O)c4c3C2=O)NC(=O)/C(C)=C\C=C\[C@H](C)[C@H](O)[C@@H](C)[C@@H](O)[C@@H](C)[C@H](OC(C)=O)[C@@H]1C [Rifampin, reference compound]
Subjects who experienced a TEAE: Overall [1]: 12 (100) n (%)
TEAE: Abdominal pain [1]: 0 n (%)
TEAE: Abdominal pain upper [1]: 1 (8.3) n (%)
TEAE: Arthropod bite [1]: 0 n (%)
TEAE: Chromaturia [1]: 12 (100) n (%)
TEAE: Headache [1]: 0 n (%)
TEAE: Hypoaesthesia [1]: 0 n (%)
TEAE: Non-cardiac chest pain [1]: 1 (8.3) n (%)
TEAE: Paraesthesia [1]: 1 (8.3) n (%)
TEAE: Vessel puncture site haemorrhage [1]: 0 n (%)
TEAE: Chromaturia ([1]; listed as rifampin): 12 n (%)

COc1cc2c(cc1OC)[C@H]1C[C@H](O)[C@H](CC(C)C)CN1CC2 [S,R,R-DHTBZ, reference compound]
percent of control specific binding, Serotonin 5-HT1A (Serotonin 5-HT1A): 69%
percent of control specific binding, Serotonin 5-HT7 (Serotonin 5-HT7): 80%

COc1cc2c(cc1OC)[C@H]1C[C@@H](OC(=O)[C@@H](N)C(C)(C)O)[C@H](CC(C)C)CN1CC2 [NBI-136110]
half-life ([2]; both sexes, human, oral, 80 mg, plasma analyte, NBI-98854 alone): 27 h
Tmax ([2]; both sexes, human, oral, 80 mg, plasma analyte, NBI-98854 alone, read-out: Median tmax): 3 h
half-life ([2]; both sexes, human, oral, plasma analyte, NBI-98854 administered with rifampin): 12 h
Tmax ([2]; both sexes, human, oral, plasma analyte, NBI-98854 in combination with rifampin vs NBI-98854 alone, read-out: Median tmax shorter): 1.5 h
AUC(0-inf) [2, 5]: 0.663 µg·h/mL
Cmax [2, 5]: 0.0815 µg/mL
MRT [2, 5]: 12 h
AUC(0-inf) [2, 6]: 2.08 µg·h/mL
Cmax [2, 6]: 0.0598 µg/mL
MRT [2, 6]: 39 h
AUC(0-t) ([2]; both sexes, human, oral, 80 mg, plasma metabolite NBI-136110, NBI-98854 80 mg alone, N = 11, read-out: AUC0-24): 0.963 µg·h/mL
AUC(0-t) ([2]; both sexes, human, oral, 80 mg, plasma metabolite NBI-136110, NBI-98854 80 mg alone, N = 11, read-out: AUC0-tlast): 1.89 µg·h/mL
AUC(0-t) ([2]; both sexes, human, oral, plasma metabolite NBI-136110, NBI-98854 80 mg + rifampin 600 mg, N = 11, read-out: AUC0-24): 0.554 µg·h/mL
AUC(0-t) ([2]; both sexes, human, oral, plasma metabolite NBI-136110, NBI-98854 80 mg + rifampin 600 mg, N = 11, read-out: AUC0-tlast): 0.658 µg·h/mL
Mean t1/2 shorter ([2]; plasma analyte, NBI-98854 in combination with rifampin vs NBI-98854 alone): approximately 40%
decrease in AUC0-∞ ([2]; plasma analyte, NBI-98854 plus rifampin compared with NBI-98854 alone): approximately 70%
Tlag [2, 7]: 0.16 (0.13) hr
t1/2 [2, 7]: 12 (3.0) hr
Tmax ([2]; plasma metabolite NBI-136110, NBI-98854 80 mg + rifampin 600 mg, N = 11, Median (min, max)): 1.5 (0.75, 2.1) hr
Tlag [2, 8]: 0.23 (0.14) hr
t1/2 [2, 8]: 27 (6.7) hr
Tmax ([2]; plasma metabolite NBI-136110, NBI-98854 80 mg alone, N = 11, Median (min, max)): 3.0 (2.0, 8.0) hr
inhibition of uptake through VMAT1 (human VMAT1 transporter): no significant inhibitory activity; also recorded: no significant effect
affinity for more than 80 binding sites [3]: little to no affinity
Affinity Relative to R,R,R-DHTBZ (VMAT2): 67
pKi mean (SEM) (VMAT2; n=4): 6.65 (0.04)

COc1cc2c(cc1OC)C1CC(=O)C(CC(C)C)CN1CC2 (stereo not drawn) [TBZ, reference compound]
induction of ptosis [4]: induced ptosis in an equivalent manner
inhibition of uptake through VMAT1 (human VMAT1 transporter): no significant inhibitory activity; also recorded: no significant effect

COC(=O)[C@H]1[C@H]2C[C@@H]3c4[nH]c5cc(OC)ccc5c4CCN3C[C@H]2C[C@@H](OC(=O)c2cc(OC)c(OC)c(OC)c2)[C@@H]1OC [reserpine, reference compound]
inhibition of uptake through VMAT1 (human VMAT1 transporter): substantially inhibited uptake
